The numbers were not newly measured in the CATMoS acute toxicity set (Mansouri et al. 2021), which cites them from elsewhere.

The nature of the series: rat acute oral toxicity. To be noted: in vivo.
As to `CC1CCCC2N(C)C=C(C(N)=O)C(=O)N12` (configuration not stated), the LD50 was 370 mg/kg.
For the molecule `O=[N+]([O-])c1cccc2ccccc12`, the LD50 was 150 mg/kg.
Regarding `NC(=O)Cc1cccc2ccccc12`, the LD50 was 1690 mg/kg.
`CC1=C(C(C)C)CC=CC1`: the LD50 was 4270 mg/kg.
On to `Clc1cc2oc3c(Cl)c(Cl)c(Cl)cc3c2cc1Cl`, for which the median lethal dose (LD50) is 0.916 mg/kg.
For the molecule `C=C(Cl)C(Cl)=C(Cl)Cl`, the LD50 was 421 mg/kg.
As for `C=CCN1CCCC1=Nc1ccc(Cl)c(Cl)c1`, the LD50 is 1850 mg/kg.
On to `CC(C)CCP(=O)(CCC(C)C)CCC(C)C`, for which the LD50 is 2240 mg/kg.
Take `NC(=O)COc1ccc(Cl)cc1Cl`: the median lethal dose (LD50) is 1200 mg/kg.
On to `C=CC(=O)OC(C)COCC(C)OC(=O)C=C` (configuration not stated), for which the LD50 was 4600 mg/kg.
For the molecule `CCOC(=O)C(CCc1ccccc1)NC(C)C(=O)N1C(C(=O)O)CC2CCCCC21` (configuration not stated), the LD50 is 2500 mg/kg.
On to `c1coc(-c2nc3ccccc3[nH]2)c1`, for which the LD50 was 500 mg/kg.
As to `C#CCN(C)c1ccccc1OC(=O)NC`, the LD50 was 60 mg/kg.
As to `CCOC(=O)c1ccccc1`, the LD50 was 2100 mg/kg.
Consider `Nc1ccc(-c2ccc(-n3nc4ccc5c(S(=O)(=O)O)cc(S(=O)(=O)O)cc5c4n3)cc2)cc1S(=O)(=O)O`, for which the LD50 was 9500 mg/kg.
In the case of `CCOC(=S)SSSC(=S)OCC`, the LD50 was 235 mg/kg.
`Cc1c(N)nc(C)c2c1[nH]c1ccccc12`: the LD50 is 100 mg/kg.
For the molecule `CCS(=O)(=O)CCOP(=S)(OC)OC`, the LD50 is 500 mg/kg.
With `C[C@]12CCC(=O)C=C1CC[C@@H]1[C@@H]2[C@@H](O)C[C@@]2(C)[C@H]1CC[C@]2(O)C(=O)COP(=O)(O)O`, the LD50 is 6100 mg/kg.
As for `CCCCOP(=O)(OCCO)OCCCC`, the LD50 was 915 mg/kg.
For the molecule `O=C1CCc2cc(C(=O)CCCN3CCN(c4ccccc4Cl)CC3)ccc2N1`, the LD50 was 500 mg/kg.
Consider `C=COC=O`, for which the LD50 was 2820 mg/kg.
On to `CNC1=Nc2ccc(Cl)cc2C(c2ccccc2)=[N+]([O-])C1`, for which the LD50 is 537 mg/kg.
Regarding `CC(=O)c1cccc2ccccc12`, the LD50 was 1560 mg/kg.
Turning to `SCCS`, the LD50 is 120 mg/kg.
Consider `Cc1ccccc1CN(C)N=O`, for which the LD50 was 90 mg/kg.
On to `c1ccc(Nc2cccc3ccccc23)cc1`, for which the LD50 is 1620 mg/kg.
With `OCCc1ccncc1`, the LD50 is 3500 mg/kg.
Turning to `O=C(O)C(Cl)(Cl)CCl`, the median lethal dose (LD50) was 2460 mg/kg.
In the case of `CCCCOCCOCCOCOCCOCCOCCCC`, the 50% lethal dose (LD50) is 1750 mg/kg.
For `CCCCOCCOC(=O)COc1cc(Cl)c(Cl)cc1Cl`, the LD50 is 500 mg/kg.
For `CC(C)N1C=CC(=C2C(=O)c3ccccc3C2=O)C=C1`, the 50% lethal dose (LD50) was 1450 mg/kg.
With `CCOP(=O)(OCC)O/C(=C\Cl)c1cc(Cl)ccc1Cl`, the LD50 was 35 mg/kg.
Take `CCOP(=S)(OCC)SC(C#N)c1ccccc1` (configuration not stated): the LD50 is 100 mg/kg.
As for `N#Cc1ccc(Cl)c([N+](=O)[O-])c1`, the LD50 is 2050 mg/kg.
As for `C[N+](C)(C)[O-]`, the LD50 was 8700 mg/kg.
`C=C(C)C(=O)OCC(=O)OCC`: the LD50 was 7880 mg/kg.
Consider `c1ccc2c(c1)OCCOCCOc1ccccc1OCCOCCO2`, for which the LD50 was 2600 mg/kg.
In the case of `CCOC(=O)c1c[nH]c2cc(OCC3CC3)c(OCC3CC3)cc2c1=O`, the median lethal dose (LD50) is 3000 mg/kg.
Consider `NC(Cl)c1nc(Cl)c(Cl)c(Cl)c1Cl` (configuration not stated), for which the LD50 is 1190 mg/kg.
With `Cc1cccc(C)c1NC(=O)c1cc(S(N)(=O)=O)c(Cl)cc1O`, the LD50 was 1640 mg/kg.
Take `CCCCOC(=O)N(C)SN(C)C(=O)Oc1cccc2c1OC(C)(C)C2`: the LD50 is 53 mg/kg.
Regarding `OC(Cn1cncn1)(c1ccc(F)cc1)c1ccccc1F` (configuration not stated), the 50% lethal dose (LD50) is 1140 mg/kg.
For the molecule `CCSC(=O)NC1CCCCC1`, the LD50 is 2300 mg/kg.
For the molecule `Nc1c(Cl)cc(Cl)cc1C(=O)O`, the LD50 is 4120 mg/kg.
For `CNC(=O)Oc1ccc(NC(=O)OC)c(C(C)C)c1`, the LD50 was 27 mg/kg.
In the case of `Brc1ccc2[nH]cc(CC3CCNCC3)c2c1`, the LD50 is 25 mg/kg.
As to `C=CC[N@@+]12CC[C@@]34c5ccccc5N5C=C6[C@H]7C[C@H]8[C@@]9(CC[N@@+]8(CC=C)C/C7=C/CO)c7ccccc7N(C=C([C@@H](C[C@@H]31)/C(=C\CO)C2)[C@H]54)[C@@H]69`, the LD50 is 27.6 mg/kg.
As for `CC(=O)CCc1ccccc1`, the 50% lethal dose (LD50) was 3200 mg/kg.
As for `C=Cc1ccccn1`, the median lethal dose (LD50) is 100 mg/kg.
As to `COCCNC(=O)CSP(=S)(OC)OC`, the LD50 was 420 mg/kg.
Consider `COc1cc(C(=O)c2ccc(Cl)cc2)cc(OC)c1OCCN1CCOCC1`, for which the LD50 is 1290 mg/kg.
For `CCCCCCCCSCCO`, the LD50 was 8530 mg/kg.
As to `CCCCOCCOCCSC#N`, the LD50 is 90 mg/kg.
With `COc1cc2c(cc1OC)[C@@]13CCN4CC5=CCO[C@H]6CC(=O)N2[C@H]1[C@H]6[C@H]5C[C@H]43`, the LD50 was 1 mg/kg.
With `CC(=O)c1ccc(O)cc1O`, the LD50 is 2830 mg/kg.
Regarding `CCOC(=S)c1ccc2c(c1)OCO2`, the LD50 was 1160 mg/kg.
As to `COc1c(Cl)cc2[nH]c(C(F)(F)F)nc2c1Cl`, the LD50 is 8.03 mg/kg.
On to `CC(COCCN)COCCCN` (configuration not stated), for which the 50% lethal dose (LD50) is 242 mg/kg.
In the case of `CCCCOC(=O)c1c[n+](C)c2n(c1=O)C(C)CCC2` (configuration not stated), the LD50 is 1370 mg/kg.
Consider `CCNC(=O)Oc1c(Cl)c(Cl)cc2[nH]c(C(F)(F)F)nc12`, for which the LD50 is 103 mg/kg.
On to `CCNC(=O)C(SP(=S)(OC)OC)C(=O)NCC`, for which the LD50 is 1000 mg/kg.

For orientation: LD50 means the dose expected to kill half of the subjects tested.
